Test system: hepatocytes
Experiment: RNA-seq of hepatocytes treated with Phase III failure compounds
Conditions: for significant modulation of expression of any of the genes analyzed: p≤0.05
Experimental: RNA-seq was performed to determine the effects of the compounds on hepatocytes.
Significance was determined by the criteria of FPKM≥0.5, a log 2(fold-change)≥1, and a […].

SMILES: NC(=O)c1ccc(I)c([N+](=O)[O-])c1 [BSI-201]
- RNA-seq results, CYP2B6 expression: 0.07
- RNA-seq results, CYP2C19 expression: 0.30
- RNA-seq results, CYP2D6 expression: −0.15
- RNA-seq results, CYP3A4 expression: −0.46
- RNA-seq results, CYP7B1 expression: 0.03
- RNA-seq results, CYP39A1 expression: −0.20
- RNA-seq results: CYP2B6 expression: 0.48
- RNA-seq results: CYP2C19 expression: 0.24
- RNA-seq results: CYP2D6 expression: 0.11
- RNA-seq results: CYP3A4 expression: 3.12
- RNA-seq results: CYP7B1 expression: 0.05
- RNA-seq results: CYP39A1 expression: 0.43
- significant modulation of expression of disease genes (RNA-seq, q≤0.05, hepatocytes, genes in the value or listed in the block): significantly (q≤0.05) modulate expression of RMRP
- RNA-seq results: A1BG expression (gene A1BG, hepatocytes): −0.21
- RNA-seq results: AGTR1 expression (gene AGTR1, hepatocytes): −0.22
- RNA-seq results: AGXT expression (gene AGXT, hepatocytes): −0.06
- RNA-seq results: AHI1 expression (gene AHI1, hepatocytes): 0.33
- RNA-seq results: AMPD3 expression (gene AMPD3, hepatocytes): 0.19
- RNA-seq results: AMT expression (gene AMT, hepatocytes): −0.04
- RNA-seq results: ANGPTL3 expression (gene ANGPTL3, hepatocytes): −0.14
- RNA-seq results: ANKS4B expression (gene ANKS4B, hepatocytes): −0.24
- RNA-seq results: ANKS6 expression (gene ANKS6, hepatocytes): 0.04
- RNA-seq results: ANPEP expression (gene ANPEP, hepatocytes): −0.09
- RNA-seq results: AOC2 expression (gene AOC2, hepatocytes): 0.36
- RNA-seq results: APOA2 expression (gene APOA2, hepatocytes): −0.52
- RNA-seq results: APOA5 expression (gene APOA5, hepatocytes): −0.17
- RNA-seq results: APOB expression (gene APOB, hepatocytes): 0.03
- RNA-seq results: COG5 expression (gene COG5, hepatocytes): −0.06
- RNA-seq results: COG6 expression (gene COG6, hepatocytes): −0.01
- RNA-seq results: COL1A1 expression (gene COL1A1, hepatocytes): −0.34
- RNA-seq results: COX6A1 expression (gene COX6A1, hepatocytes): −0.13
- RNA-seq results: CP expression (gene CP, hepatocytes): 0.11
- RNA-seq results: CPS1 expression (gene CPS1, hepatocytes): 0.09
- RNA-seq results: CPT1A expression (gene CPT1A, hepatocytes): −0.18
- RNA-seq results: CPT2 expression (gene CPT2, hepatocytes): 0.10
- RNA-seq results: CROT expression (gene CROT, hepatocytes): −0.04
- RNA-seq results: CSPP1 expression (gene CSPP1, hepatocytes): −0.07
- RNA-seq results: CTC1 expression (gene CTC1, hepatocytes): −0.08
- RNA-seq results: CTDSP2 expression (gene CTDSP2, hepatocytes): 0.10
- RNA-seq results: CTH expression (gene CTH, hepatocytes): 0.23
- RNA-seq results: CTNS expression (gene CTNS, hepatocytes): 0.08
- RNA-seq results: CTSF expression (gene CTSF, hepatocytes): 0.10
- RNA-seq results: CTSK expression (gene CTSK, hepatocytes): −0.15
- RNA-seq results: CYB5A expression (gene CYB5A, hepatocytes): 0.73
- RNA-seq results: CYB5R3 expression (gene CYB5R3, hepatocytes): 0.04
- RNA-seq results: CYP27A1 expression (gene CYP27A1, hepatocytes): 0.04
- RNA-seq results: DAO expression (gene DAO, hepatocytes): −0.04
- RNA-seq results: DBT expression (gene DBT, hepatocytes): 0.04
- RNA-seq results: DCDC2 expression (gene DCDC2, hepatocytes): 0.01
- RNA-seq results: DCXR expression (gene DCXR, hepatocytes): −0.01
- RNA-seq results: FABP1 expression (gene FABP1, hepatocytes): −0.25
- RNA-seq results: FADD expression (gene FADD, hepatocytes): −0.08
- RNA-seq results: FAM111A expression (gene FAM111A, hepatocytes): 0.07
- RNA-seq results: FAM111B expression (gene FAM111B, hepatocytes): 0.03
- RNA-seq results: FAN1 expression (gene FAN1, hepatocytes): 0.05
- RNA-seq results: FARS2 expression (gene FARS2, hepatocytes): −0.14
- RNA-seq results: FASLG expression (gene FASLG, hepatocytes): −0.21
- RNA-seq results: FGA expression (gene FGA, hepatocytes): 0.16
- RNA-seq results: FGD1 expression (gene FGD1, hepatocytes): −0.07
- RNA-seq results: FGFR2 expression (gene FGFR2, hepatocytes): 0.07
- RNA-seq results: FIG4 expression (gene FIG4, hepatocytes): −0.12
- RNA-seq results: FIS1 expression (gene FIS1, hepatocytes): −0.06
- RNA-seq results: FTCD expression (gene FTCD, hepatocytes): 0.31
- RNA-seq results: FTH1 expression (gene FTH1, hepatocytes): 0.06
- RNA-seq results: FUCA1 expression (gene FUCA1, hepatocytes): −0.11
- RNA-seq results: FXN expression (gene FXN, hepatocytes): 0.23
- RNA-seq results: G6PC3 expression (gene G6PC3, hepatocytes): 0.02
- RNA-seq results: G6PC expression (gene G6PC, hepatocytes): 0.12
- RNA-seq results: G6PD expression (gene G6PD, hepatocytes): 0.13
- RNA-seq results: GALK1 expression (gene GALK1, hepatocytes): −0.03
- RNA-seq results: GALK2 expression (gene GALK2, hepatocytes): 0.00
- RNA-seq results: GALT expression (gene GALT, hepatocytes): 0.01
- RNA-seq results: GATA6 expression (gene GATA6, hepatocytes): −0.07
- RNA-seq results: GATM expression (gene GATM, hepatocytes): −0.15
- RNA-seq results: GBA expression (gene GBA, hepatocytes): 0.02
- RNA-seq results: GBE1 expression (gene GBE1, hepatocytes): −0.15
- RNA-seq results: GCH1 expression (gene GCH1, hepatocytes): −0.06
- RNA-seq results: GCKR expression (gene GCKR, hepatocytes): 0.23
- RNA-seq results: GCLC expression (gene GCLC, hepatocytes): −0.04
- RNA-seq results: GOSH expression (gene GOSH, hepatocytes): 0.46
- RNA-seq results: RRM2B (gene RRM2B, hepatocytes): −0.28
- RNA-seq results: RSAD1 (gene RSAD1, hepatocytes): −0.02
- RNA-seq results: SAMHD1 (gene SAMHD1, hepatocytes): −0.24
- RNA-seq results: SC5D (gene SC5D, hepatocytes): −0.29
- RNA-seq results: SCARB1 (gene SCARB1, hepatocytes): −0.03
- RNA-seq results: SCN9A (gene SCN9A, hepatocytes): 0.10
- RNA-seq results: SDCCAG8 (gene SDCCAG8, hepatocytes): −0.06
- RNA-seq results: SEPN1 (gene SEPN1, hepatocytes): −0.11
- RNA-seq results: SERAC1 (gene SERAC1, hepatocytes): −0.22
- RNA-seq results: SERPINA1 (gene SERPINA1, hepatocytes): −0.17
- RNA-seq results: SERPING1 (gene SERPING1, hepatocytes): −0.16
- RNA-seq results: SERPINI1 (gene SERPINI1, hepatocytes): −0.41
- RNA-seq results: SETBP1 (gene SETBP1, hepatocytes): 0.06
- RNA-seq results: SFXN4 (gene SFXN4, hepatocytes): −0.19
- RNA-seq results: SLC10A1 (gene SLC10A1, hepatocytes): −0.31
- RNA-seq results: SLC10A3 (gene SLC10A3, hepatocytes): 0.33
- RNA-seq results: SLC10A5 (gene SLC10A5, hepatocytes): 0.19
- RNA-seq results: SLC10A7 (gene SLC10A7, hepatocytes): −0.38
- RNA-seq results: SLC11A2 (gene SLC11A2, hepatocytes): −0.02
- RNA-seq results: SLC19A1 (gene SLC19A1, hepatocytes): 0.05
- RNA-seq results: SLC19A2 (gene SLC19A2, hepatocytes): 0.00
- RNA-seq results: SLC19A3 (gene SLC19A3, hepatocytes): −0.03
- RNA-seq results: SLC22A1 (gene SLC22A1, hepatocytes): −0.32
- RNA-seq results: SLC22A5 (gene SLC22A5, hepatocytes): 0.05
- RNA-seq results: SLC25A1 (gene SLC25A1, hepatocytes): 0.08
- RNA-seq results: SLC25A10 (gene SLC25A10, hepatocytes): −0.16
- RNA-seq results: SLC25A12 (gene SLC25A12, hepatocytes): 0.23
- RNA-seq results: SLC25A13 (gene SLC25A13, hepatocytes): −0.13
- RNA-seq results: SLC25A15 (gene SLC25A15, hepatocytes): 0.02
- RNA-seq results: SLC25A19 (gene SLC25A19, hepatocytes): −0.15
- RNA-seq results: SLC25A20 (gene SLC25A20, hepatocytes): −0.16
- RNA-seq results: SLC25A29 (gene SLC25A29, hepatocytes): 0.09
- RNA-seq results: SLC25A32 (gene SLC25A32, hepatocytes): −0.05

SMILES: CC1(C)CC[C@]2(C(=O)O)CC[C@]3(C)[C@H](C(=O)C=C4[C@@]5(C)C=C(C#N)C(=O)C(C)(C)[C@@H]5CC[C@]43C)[C@@H]2C1 [Bardoxolone]
- significant modulation of expression of any of the genes analyzed (RNA-seq, hepatocytes): not observed to significantly modulate expression

SMILES: C[C@H](Oc1ccc(S(C)(=O)=O)cc1C(=O)N1CCN(c2ncc(C(F)(F)F)cc2F)CC1)C(F)(F)F [Bitopertin]
- significant changes in gene expression (RNA-seq of Table 36, FPKM≥0.5, log 2(fold-change)≥1, q-value≤0.05): not observed to cause any significant changes in gene expression
- significant modulation of expression of any of the genes analyzed (RNA-seq, hepatocytes): not observed to significantly modulate expression

From patent US20210254056A1, “IDENTIFICATION AND TARGETED MODULATION OF GENE SIGNALING NETWORKS” (CAMP4 THERAPEUTICS CORPORATION, priority 2017, published 2021)
